The text below walks through data of patent US20070264202A1, “Pharmaceutical Composition Comprising an Isomer of Betamimetic Agent and an Anti-Cholinergic Agent” (CIPLA LIMITED, priority 2004, published 2007).

The test system of data set [1] is subjects with stable mild to moderate bronchial asthma. Description: Randomized double-blind, single-dose, crossover study of bronchodilator responses via metered dose inhaler. Conditions: monitored over 6 hours. In kind it is in vivo. As for the experimental part: A study was conducted to compare bronchodilator responses to levosalbutamol sulphate and racemic salbutamol sulphate administered via metered dose inhaler in a randomized double-blind, single-dose, crossover study. In this study single doses of 100 mcg levosalbutamol sulphate and 200 mcg racemic salbutamol sulphate were administered via MDI in subjects with stable mild to moderate bronchial asthma, who were then monitored over a period of 6 hours. […] Thus, it is clear from the study that a reduced dose of levosalbutamol sulphate is required compared to racemic salbutamol sulphate to have the same therapeutic effect.

The conditions of data set [2]: cited from earlier work.
Data set [3] can be described thus: Flow, suspension and dispersion characteristics. In kind it is physicochemical. The conditions noted are these: compared with the racemate.
The conditions of data set [4]: compared with the racemate; cited from earlier work.
A further data set deals with beta-adrenoreceptor. Conditions: in-vitro studies, salbutamol enantiomers; cited from earlier work.

For the compound “salbutamol sulphate [racemic salbutamol sulphate]”, in data set [1] (single dose 200 mcg via MDI, compared with 100 mcg levosalbutamol sulphate), the bronchodilator response result is reported as “equivalent time-dependant bronchodilator responses”.

For the compound `COc1ccc(C[C@@H](C)NC[C@H](O)c2ccc(O)c(NC=O)c2)cc1` [R,R formoterol], in data set [2], the “activity relative to S,S-isomer or any other available isomer” value is 1000 times. On to `CC(C)(C)NC[C@H](O)c1ccc(O)c(CO)c1` [levosalbutamol], for which, in data set [3], the flow property result is listed as “more free flowing than the racemate”; the “suspension and dispersion characteristics” value was “better suspension and dispersion characteristics”. For the same compound, the bronchodilatory effects result in data set [4] is “greater bronchodilatory effects than the racemate”.

Regarding levosalbutamol sulphate, the bronchodilator response result in data set [1] (single dose 100 mcg via MDI, compared with 200 mcg racemic salbutamol sulphate) is listed as “equivalent time-dependant bronchodilator responses”. In the case of `CC(C)(C)NC[C@@H](O)c1ccc(O)c(CO)c1` (single isomer, unassigned) [S-isomer], in the data set on beta-adrenoreceptor, the “affinity for the beta-adrenoreceptor” value is given as “markedly less affinity”.
